Data as given in patent publication US10094834B2, “Method of selecting individualized brain cancer therapy” (TURUN YLIOPISTO, priority 2012, dated 2018).
Entries after “also recorded” stand apart in the source; their conditions may differ.

Tests used:
Format in all cases: cell-based, human
T98G glioblastoma cells [1] = experiment: Apoptosis assay by sub-G0/G1 fraction estimation (nuclear fragmentation, PI/FACS); conditions: for apoptotic nuclear fragmentation (sub-G0/G1 fraction): T98G cells depleted of PME-1 (PME-1 siRNA 48 hrs), drug treatment 24 hrs; for effect on PME-1 siRNA and STS mediated apoptosis (nuclear fragmentation): T98G
Description: The percentage of the sub-G0/G1 fraction containing fragmented nuclei stained with Propidium iodide (PI) was taken as a measure of apoptotic cells. 3.5-4×10^4 cells were plated in 24-well plates, transfected with siRNA for 48 hrs, and then treated with indicated concentration of test compounds in fresh media. After 24 hrs of treatment, both floating and adherent cells were harvested by centrifugation. Cell pellets were resuspended in 400 μl of hypotonic PI buffer, containing 40 mM Tri-sodium citrate (Merck), 0.3% Triton X-100 (Sigma-Aldrich) and 50 μg/ml Propidium iodide (Sigma-Aldrich) in PBS, and incubated at room temperature for 10 minutes in dark. The flow cytometric analysis of PI stained nuclei was performed and the recorded data was analyzed using a FACScan flow cytometer and software (Becton Dickinson) respectively.
In experiments using pan-caspase inhibitor, cells were kept in growth media containing 30 μM Z-VAD-FMK starting from 18 hrs after transfection till the PI staining.
The T98G cells transfected with siRNA for 48 hrs were given drug treatments for 24 hrs and were subsequently lysed, and their nuclei were stained using hypotonic propidium iodide buffer. The lysates were analysed for changes in the sub-G0/G1 fraction of fragmented nuclei by flow cytometry (FACS) (FIG. 1B). Condensation and fragmentation of nucleus is a key biochemical feature of apoptosis and sub-G0/G1 analysis has been widely used for detection of apoptosis (FEBS Lett., 1986, 194(2):347-50; Cytometry, 1991, 12(4):323-329; Nature Protocols, 2006, 1:1458-1461).

[2] = tested on: U251MG glioblastoma cells; experiment: Colony formation assay, U251MG; conditions: PME-1 depleted versus scrambled siRNA, 2 days of treatment
Source text: (§1) Cells plated in very low density (4-6×10^3) in 6-well plates were allowed to grow for about 7 days until they form small colonies. These cells were then transfected with Scrambled or PME-1 siRNA using Lipofectamine RNAiMAX reagent (Invitrogen) according to the manufacturer's instructions. After 48 hrs, treatments were given with indicated concentration of chemical drugs for another 48 hrs. Cell colonies were washed with PBS, fixed with 3.7% formaldehyde and stained with 0.2% crystal violet solution (made in 10% ethanol) for 15 minutes at room temperature each. Excess stain was removed by repeated washings with PBS. Plates were dried and pictures were taken with Olympus SP-600UZ camera or Epson perfection […] scanner and analysed with ImageJ.

U87MG glioblastoma cells = experiment: Colony formation assay, U87MG; conditions: PME-1 depleted versus scrambled siRNA, 2 days of treatment
Source text: as §1

T98G glioblastoma cells [3] = experiment: Colony formation assay, T98G
Source text: (§2) Cells plated in very low density (4-6×10^3) in 6-well plates were allowed to grow for about 7 days until they form small colonies. These cells were then transfected with Scrambled or PME-1 siRNA using Lipofectamine RNAiMAX reagent (Invitrogen) according to the manufacturer's instructions. After 48 hrs, treatments were given with indicated concentration of chemical drugs for another 48 hrs. Cell colonies were washed with PBS, fixed with 3.7% formaldehyde and stained with 0.2% crystal violet solution (made in 10% ethanol) for 15 minutes at room temperature each. Excess stain was removed by repeated washings with PBS. Plates were dried and pictures were taken with Olympus SP-600UZ camera or Epson perfection V700 scanner and analysed with ImageJ.
(§3) Next, the effect of PME-1 expression on the sensitivity of glioblastoma cells to STS was tested by colony formation assay in T98G glioblastoma cells and another glioblastoma cell line U118MG. For this experiment, these cells were grown in 6-well plates until the formation of small colonies which were then transfected with Scrambled or PME-1 siRNA for 48 hrs followed by treatment with STS at the indicated concentrations for another 48 hrs. […] Similar results were obtained with both glioblastoma cell lines.

[4] = tested on: U118MG glioblastoma cells; experiment: Colony formation assay, U118MG
Source text: as §2, §3

T98G glioblastoma cells [5] = experiment: Cell viability assay, CellTiter-glo (CTG)
Description: Cell viability was determined by CellTiter-glo (CTG) assay which measures the cellular ATP levels as an indicator of metabolically active and viable cells. CTG reagent kit was purchased from Promega Corp. and assays were performed according to their recommendations. Assays were performed in white polystyrene 96-well plates (Nunc, Thermo Fisher Scientific Inc.) and luminescence was measured with Perkin Elmer Victor2 Plate Reader.

[6] = tested on: Caspase-3/7 in T98G cells; experiment: Caspase-3 and -7 activity, Caspase-Glo 3/7 Assay
Description: Caspase-3 and -7 activity was measured by luminescence based method, which utilize a substrate containing Caspase-3 and -7 target peptide DEVD, named Caspase-Glo 3/7 Assay (Promega Corp.). Assays were performed in white polystyrene 96-well plates (Nunc, Thermo Fisher Scientific Inc.) according to manufacturer's instructions and luminescence was measured with Perkin Elmer Victor2 Plate Reader.

[7] = PME-1 siRNA 48 hrs then drug 48 hrs
[8] = scrambled siRNA (intact PME-1), drug 48 hrs

For C[C@]12O[C@H](C[C@]1(O)CO)n1c3ccccc3c3c4c(c5c6ccccc6n2c5c31)CNC4=O [CEP-701, (9S,10S,12R)-2,3,9,10,11,12-Hexahydro-10-hydroxy-10-(hydroxymethyl)-9-methyl-9,12-epoxy-1H-diindolo[1,2,3-fg:3′,2′,1′-kl]pyrrolo[3,4-i][1,6]benzo di-azocin-1-one], the “apoptotic nuclear fragmentation (sub-G0/G1 fraction)” value (T98G glioblastoma cells [1]) was “levels even higher than STS itself”.
For CC1CNCCN1S(=O)(=O)c1cccc2cnccc12 (centres unmarked) [H7], the “apoptotic nuclear fragmentation (sub-G0/G1 fraction)” value (T98G glioblastoma cells [1]) was “moderate”.
For COC(=O)[C@@]1(O)C[C@H]2O[C@]1(C)n1c3ccccc3c3c4c(c5c6ccccc6n2c5c31)C(=O)NC4 [K252a], the “apoptotic nuclear fragmentation (sub-G0/G1 fraction)” value (T98G glioblastoma cells [1]) was “levels even higher than STS itself”, the “cell killing activity, colony formation” value [2] was “enhanced the cell killing activity” and the “cell killing activity, colony formation” value (U87MG glioblastoma cells) was “enhanced the cell killing activity”.
With CO[C@@H]1[C@H](N(C)C(=O)c2ccccc2)C[C@H]2O[C@]1(C)n1c3ccccc3c3c4c(c5c6ccccc6n2c5c31)C(=O)NC4 [PKC412, [9S-(9α, 10β,11β,13α)]-N-(2,3,10,11,12,13-Hexahydro-10-methoxy-9-methyl-1-oxo-9,13-epoxy-1H,9H-diindolo[1,2,3-gh:3′,2′,1′-lm]pyrrolo[3,4-j][1,7]benzodiazonin-11-yl)-N-methyl benzamide] the “apoptotic nuclear fragmentation (sub-G0/G1 fraction)” value (T98G glioblastoma cells [1]) was “levels even higher than STS itself”, the “cell killing activity, colony formation” value [2] was “enhanced the cell killing activity” and the “cell killing activity, colony formation” value (U87MG glioblastoma cells) was “enhanced the cell killing activity”.
For O=C1NC(=O)c2c1c1c3ccccc3n3c1c1c2c2ccccc2n1C1CCC3O1 [SB 218078, 9,10,11,12-Tetrahydro-9,12-epoxy-1H-diindolo[1,2,3-fg:3′,2′,1′-kl]pyrrolo[3,4-i][1,6]benzodi-azocine-1,3(2H)-dione], the “apoptotic nuclear fragmentation (sub-G0/G1 fraction)” value (T98G glioblastoma cells [1]) was “moderate levels of apoptosis at higher concentration”.
With CN[C@@H]1C[C@H]2O[C@@](C)([C@@H]1OC)n1c3ccccc3c3c4c(c5c6ccccc6n2c5c31)C(=O)NC4 [STS, [9S-(9α,10β,11β,13α)]-2,3,10,11,12,13-Hexa-hydro-10-methoxy-9-methyl-11-(methylamino)-9,13-epoxy-1H,9H-diindolo[1,2,3-gh:3′,2′,1′-lm]pyrrolo[3,4-j][1,7]benzo diazonin-1-one] the “apoptotic nuclear fragmentation (sub-G0/G1 fraction)” value (T98G glioblastoma cells [1]) was “very high level of nuclear fragmentation; also recorded: induce apoptosis in a dose dependent manner; also recorded: highly sensitive to STS induced cell death even at lowest concentrations”, the “concentration at which drug alone started inducing cell death” value (T98G glioblastoma cells [1]; control (Scrambled siRNA transfected) T98G cells) was “higher than 50 nM” and the “concentration at which limited cell death was observed with drug alone” value (T98G glioblastoma cells [1]; untransfected T98G cells) was “higher than 30 nM”. The “colony formation (colonogenic potential)” value (T98G glioblastoma cells [3]; [7]) was “almost complete loss of colonies”, the “colony formation (colonogenic potential)” value (T98G glioblastoma cells [3]; [8]) was “did not respond well” and the “colony formation (colonogenic potential)” value [4, 7] was “almost complete loss of colonies”. The “colony formation (colonogenic potential)” value [4, 8] was “did not respond well”, the “cell killing activity, colony formation” value [2] was “enhanced the cell killing activity” and the “cell killing activity, colony formation” value (U87MG glioblastoma cells) was “enhanced the cell killing activity”. For the same compound, the “cell viability (CTG)” value (T98G glioblastoma cells [5]; PME-1 siRNA plus STS treatment) was “drastic decrease in the cell viability” and the “increase of Caspase-3/7 activity” value ([6]; PME-1 depletion in combination with STS treatment) was “above 6 fold”.
In the case of CN[C@@H]1C[C@H]2O[C@@](C)([C@@H]1OC)n1c3ccccc3c3c4c(c5c6ccccc6n2c5c31)C(=O)N[C@H]4O [UCN-01, (9S)-2,3,10,11,12,13-Hexahydro-3α-hydroxy-10α-methoxy-9-methyl-11α-methyl amino-9β,13β-epoxy-1H,9H-diindolo[1,2,3-gh:3′,2′,1′-lm]pyrrolo[3,4-j][1,7]benzo diazonin-1-one], the “apoptotic nuclear fragmentation (sub-G0/G1 fraction)” value (T98G glioblastoma cells [1]) is reported as “levels even higher than STS itself”.
With C=C1[C@@H](O)[C@@H]2O[C@]3(CC[C@H](/C=C/[C@@H](C)[C@@H]4CC(C)=C[C@@]5(O[C@H](C[C@@](C)(O)C(=O)O)CC[C@H]5O)O4)O3)CC[C@H]2O[C@@H]1[C@@H](O)C[C@H](C)[C@H]1O[C@@]2(CCCCO2)CC[C@H]1C [okadaic acid] the “effect on PME-1 siRNA and STS mediated apoptosis (nuclear fragmentation)” value (T98G glioblastoma cells [1]; PP2A inhibitor pre-treatment 24 hrs prior STS treatment) was “sufficient to rescue cells”.
In the case of “PME-1 siRNA: PME-1 siRNA 5′-GGA AGU GAG UCU AUA AGC A-3′; SEQ ID NO:1 (GGAAGUGAGUCUAUAAGCA; listed as RNA, chemistry not given here)”, the “cell viability (CTG)” value (T98G glioblastoma cells [5]; PME-1 siRNA alone) is reported as “reduced cell viability by small fraction” and the “increase of Caspase-3/7 activity” value ([6]; PME-1 depletion alone) is reported as “more than 2 fold”.
TRAIL was tested, and the “apoptotic nuclear fragmentation (sub-G0/G1 fraction)” value (T98G glioblastoma cells [1]) was “did not show the same trend”.
In the case of z-VAD-fmk, the “effect on PME-1 siRNA and STS mediated apoptosis (nuclear fragmentation)” value (T98G glioblastoma cells [1]; PME-1 siRNA plus STS, pan-caspase inhibitor 30 μM throughout the experiment) is reported as “complete reversal”.
